Drawing on patent publication US9663529B2, “Tricyclic pyrido-carboxamide derivatives as rock inhibitors” (BRISTOL-MYERS SQUIBB COMPANY, priority 2013, dated 2017), this text covers IC50 for 47 compounds.

SMILES strings stand for the structures.

ROCK2, sequence (O75116 whole entry, species assumed): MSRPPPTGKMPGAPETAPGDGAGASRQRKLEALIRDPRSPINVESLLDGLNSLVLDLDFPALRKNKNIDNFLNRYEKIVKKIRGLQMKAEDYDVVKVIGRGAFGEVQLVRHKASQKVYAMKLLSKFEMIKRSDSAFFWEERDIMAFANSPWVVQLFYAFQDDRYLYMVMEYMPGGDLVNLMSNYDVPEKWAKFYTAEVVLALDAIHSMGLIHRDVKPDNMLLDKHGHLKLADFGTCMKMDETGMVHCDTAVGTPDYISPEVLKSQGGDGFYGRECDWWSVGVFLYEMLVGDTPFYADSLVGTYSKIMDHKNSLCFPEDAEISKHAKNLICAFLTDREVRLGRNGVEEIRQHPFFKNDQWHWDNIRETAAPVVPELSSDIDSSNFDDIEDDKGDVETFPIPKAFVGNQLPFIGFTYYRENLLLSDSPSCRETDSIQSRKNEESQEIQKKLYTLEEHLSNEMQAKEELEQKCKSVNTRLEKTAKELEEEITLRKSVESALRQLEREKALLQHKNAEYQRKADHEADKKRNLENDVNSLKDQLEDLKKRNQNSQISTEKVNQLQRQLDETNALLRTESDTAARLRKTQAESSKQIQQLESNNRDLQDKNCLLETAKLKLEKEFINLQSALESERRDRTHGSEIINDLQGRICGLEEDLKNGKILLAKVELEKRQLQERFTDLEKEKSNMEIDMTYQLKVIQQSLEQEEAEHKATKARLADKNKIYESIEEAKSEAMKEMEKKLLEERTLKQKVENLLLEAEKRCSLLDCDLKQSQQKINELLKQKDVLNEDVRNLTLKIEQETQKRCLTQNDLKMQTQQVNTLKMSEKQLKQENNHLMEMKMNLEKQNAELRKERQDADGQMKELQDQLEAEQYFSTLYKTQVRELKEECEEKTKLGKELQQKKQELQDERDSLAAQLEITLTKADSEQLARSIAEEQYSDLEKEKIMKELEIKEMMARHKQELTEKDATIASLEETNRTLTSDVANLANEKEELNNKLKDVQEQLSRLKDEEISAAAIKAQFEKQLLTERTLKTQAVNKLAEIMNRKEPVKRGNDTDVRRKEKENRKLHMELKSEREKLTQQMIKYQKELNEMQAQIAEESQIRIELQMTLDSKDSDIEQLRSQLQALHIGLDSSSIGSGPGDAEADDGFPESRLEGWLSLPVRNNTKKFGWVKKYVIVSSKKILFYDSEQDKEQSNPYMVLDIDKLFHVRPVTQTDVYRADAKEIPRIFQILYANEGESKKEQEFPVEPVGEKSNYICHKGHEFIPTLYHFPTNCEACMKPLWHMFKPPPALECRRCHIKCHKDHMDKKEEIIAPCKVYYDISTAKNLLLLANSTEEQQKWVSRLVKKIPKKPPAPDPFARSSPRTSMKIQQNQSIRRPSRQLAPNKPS

The assay addresses ROCK2 (Homo sapiens (Human), UniProt O75116). The experiment in a line: ROCK assay (Caliper LABCHIP peptide phosphorylation, 5 μM ATP). The class given is biochemical. As to conditions: 1.5 μM peptide substrate.
On to `COC(=O)c1cccc(C(=O)Nc2ccc3c(c2)OCc2cnccc2-3)c1` [Example I-38, methyl 3-(5H-chromeno[3,4-c]pyridin-8-ylcarbamoyl)benzoate], for which the IC50 – broadly, the midpoint of a concentration-inhibition curve – is 847 nM.

In the case of `O=C(Nc1ccc2c(c1)OCc1cnccc1-2)c1csc(-c2cccnc2)n1` [Example I-39, N-(5H-chromeno[3,4-c]pyridin-8-yl)-2-(pyridin-3-yl) thiazole-4-carboxamide], the midpoint of inhibition, the IC50, lay at 644 nM.

Turning to `NS(=O)(=O)c1ccc(C(=O)Nc2ccc3c(c2)OCc2cnccc2-3)cc1` [Example I-40, N-(5H-chromeno[3,4-c]pyridin-8-yl)-4-sulfamoylbenzamide], the 50% inhibitory concentration (IC50) stood at 500 nM.

`O=C(Nc1ccc2c(c1)OCc1cnccc1-2)c1csnn1` [Example I-41, N-(5H-chromeno[3,4-c]pyridin-8-yl)-1,2,3-thiadiazole-4-carboxamide] had a 50% inhibitory concentration (IC50) of 2760 nM.

Consider `O=C(Cc1cccnc1)Nc1ccc2c(c1)OCc1cnccc1-2` [Example I-42, N-(5H-chromeno[3,4-c]pyridin-8-yl)-2-(pyridin-3-yl) acetamide], for which the concentration for half-maximal inhibition (IC50) turned out to be 287 nM. This IC50 lies about 9.6-fold lower than the previous one.

`CS(=O)(=O)c1cccc(C(=O)Nc2ccc3c(c2)OCc2cnccc2-3)c1` [Example I-43, N-(5H-chromeno[3,4-c]pyridin-8-yl)-3-(methylsulfonyl) benzamide] registered an IC50 of 2190 nM.

In turn, `O=C(Nc1ccc2c(c1)OCc1cnccc1-2)c1cscn1` [Example I-44, N-(5H-chromeno[3,4-c]pyridin-8-yl) thiazole-4-carboxamide] yielded an IC50 of 1450 nM. This IC50 lies about 1.5-fold lower than the previous one.

`O=C(Nc1ccc2c(c1)OCc1cnccc1-2)c1cncnc1` [Example I-45, N-(5H-chromeno[3,4-c]pyridin-8-yl) pyrimidine-5-carboxamide] yielded a 50% inhibitory concentration (IC50) of 1980 nM.

In the case of `O=C(Nc1ccc2c(c1)OCc1cnccc1-2)C(O)c1ccccc1` (centres unmarked) [Example I-46, N-(5H-chromeno[3,4-c]pyridin-8-yl)-2-hydroxy-2-phenylacetamide], the half-inhibitory concentration (IC50) was 51.2 nM.

The compound `O=C(CCn1ccnc1)Nc1ccc2c(c1)OCc1cnccc1-2` [Example I-48, N-(5H-chromeno[3,4-c]pyridin-8-yl)-3-(1H-imidazol-1-yl) propanamide] showed an IC50 of 992 nM.

Compound `O=C(Cc1cnccn1)Nc1ccc2c(c1)OCc1cnccc1-2` [Example I-49, N-(5H-chromeno[3,4-c]pyridin-8-yl)-2-(pyrazin-2-yl) acetamide] registered an IC50 of 1250 nM.

For the compound `O=C(Nc1ccc2c(c1)OCc1cnccc1-2)c1ccccc1` [Example I-50, N-(5H-chromeno[3,4-c]pyridin-8-yl)benzamide], the IC50 is 4810 nM.

In turn, `O=C(Nc1ccc2c(c1)OCc1cnccc1-2)c1ccccc1Cl` [Example I-51, 2-chloro-N-(5H-chromeno[3,4-c]pyridin-8-yl)benzamide] displayed a half-inhibitory concentration (IC50) of 1150 nM.

In turn, `O=C(Nc1ccc2c(c1)OCc1cnccc1-2)c1cccc(F)c1` [Example I-52, N-(5H-chromeno[3,4-c]pyridin-8-yl)-3-fluorobenzamide] had a concentration for half-maximal inhibition (IC50) of 3560 nM.

With `O=C(Nc1ccc2c(c1)OCc1cnccc1-2)c1cccc(Cl)c1` [Example I-53, 3-chloro-N-(5H-chromeno[3,4-c]pyridin-8-yl)benzamide], the IC50 came to 4500 nM.

For `N#Cc1ccc(C(=O)Nc2ccc3c(c2)OCc2cnccc2-3)cc1` [Example I-54, N-(5H-chromeno[3,4-c]pyridin-8-yl)-4-cyanobenzamide], the IC50 stood at 2560 nM.

`COc1ccc(C(=O)Nc2ccc3c(c2)OCc2cnccc2-3)cc1` [Example I-55, N-(5H-chromeno[3,4-c]pyridin-8-yl)-4-methoxybenzamide] returned a half-maximal inhibitory concentration (IC50) of 3250 nM. This IC50 and that of the compound before are within 1.5-fold of each other.

`COC(=O)c1ccc(C(=O)Nc2ccc3c(c2)OCc2cnccc2-3)cc1` [Example I-56, methyl 4-(5H-chromeno[3,4-c]pyridin-8-ylcarbamoyl) benzoate] returned an IC50 of 626 nM.

As to `COc1ccc(CCC(=O)Nc2ccc3c(c2)OCc2cnccc2-3)cc1` [Example I-57, N-(5H-chromeno[3,4-c]pyridin-8-yl)-3-(4-methoxyphenyl) propanamide], it took 1140 nM to reach half-maximal inhibition (IC50).

`O=C(CCc1ccc(O)cc1)Nc1ccc2c(c1)OCc1cnccc1-2` [Example I-58, N-(5H-chromeno[3,4-c]pyridin-8-yl)-3-(4-hydroxyphenyl) propanamide] returned an IC50 of 111 nM.

The compound `O=C(Cc1nnn[nH]1)Nc1ccc2c(c1)OCc1cnccc1-2` [Example I-59, N-(5H-chromeno[3,4-c]pyridin-8-yl)-2-(1H-tetrazol-5-yl) acetamide] had an IC50 of 3820 nM.

Compound `O=C(CCc1ccccc1)Nc1ccc2c(c1)OCc1cnccc1-2` [Example I-60, N-(5H-chromeno[3,4-c]pyridin-8-yl)-3-phenylpropanamide] displayed an IC50 of 40.4 nM.

The compound `O=C(Nc1ccc2c(c1)OCc1cnccc1-2)c1ccc2ccccc2c1` [Example I-61, N-(5H-chromeno[3,4-c]pyridin-8-yl)-2-naphthamide] returned a half-maximal inhibitory concentration (IC50) of 4720 nM.

For the compound `CN(C)c1ccc(C(=O)Nc2ccc3c(c2)OCc2cnccc2-3)cc1` [Example I-63, N-(5H-chromeno[3,4-c]pyridin-8-yl)-4-(dimethylamino) benzamide], the IC50 came out at 2370 nM.

The compound `Cn1cccc1C(=O)Nc1ccc2c(c1)OCc1cnccc1-2` [Example I-64, N-(5H-chromeno[3,4-c]pyridin-8-yl)-1-methyl-1H-pyrrole-2-carboxamide] showed a half-maximal inhibitory concentration (IC50) of 2960 nM.

Consider `O=C(Nc1ccc2c(c1)OCc1cnccc1-2)c1ccccc1-c1ccccc1` [Example I-65, N-(5H-chromeno[3,4-c]pyridin-8-yl) biphenyl-2-carboxamide], for which the IC50 was determined as 1220 nM.

The compound `COc1cccc(C(=O)Nc2ccc3c(c2)OCc2cnccc2-3)c1` [Example I-66, N-(5H-chromeno[3,4-c]pyridin-8-yl)-3-methoxybenzamide] displayed an IC50 of 2590 nM.

`O=C(CC(c1ccccc1)c1ccccc1)Nc1ccc2c(c1)OCc1cnccc1-2` [Example I-67, N-(5H-chromeno[3,4-c]pyridin-8-yl)-3,3-diphenylpropanamide]: it took 471 nM to reach half-maximal inhibition (IC50). This IC50 lies about 5.5-fold lower than the previous one.

Compound `O=C(Cc1ccc(Cl)c(Cl)c1)Nc1ccc2c(c1)OCc1cnccc1-2` [Example I-68, N-(5H-chromeno[3,4-c]pyridin-8-yl)-2-(3,4-dichlorophenyl) acetamide] registered a 50% inhibitory concentration (IC50) of 362 nM.

For the compound `O=C(Cc1ccc(C(F)(F)F)cc1)Nc1ccc2c(c1)OCc1cnccc1-2` [Example I-69, N-(5H-chromeno[3,4-c]pyridin-8-yl)-2-(4-(trifluoromethyl)phenyl)acetamide], inhibition was half-maximal at 1080 nM (IC50).

In turn, `O=C(Cc1ccc(-n2cnc3ccccc3c2=O)cc1)Nc1ccc2c(c1)OCc1cnccc1-2` [Example I-70, N-(5H-chromeno[3,4-c]pyridin-8-yl)-2-(4-(4-oxoquinazolin-3(4H)-yl)phenyl) acetamide] gave a half-inhibitory concentration (IC50) of 1130 nM.

Regarding `O=C(Nc1ccc2c(c1)OCc1cnccc1-2)c1csc(-c2ccncc2)n1` [Example I-71, N-(5H-chromeno[3,4-c]pyridin-8-yl)-2-(pyridin-4-yl)thiazole-4-carboxamide], the IC50 turned out to be 316 nM.

Compound `O=C(Nc1ccc2c(c1)OCc1cnccc1-2)C1Cc2ccccc2C1` [Example I-72, N-(5H-chromeno[3,4-c]pyridin-8-yl)-2,3-dihydro-1H-indene-2-carboxamide] displayed an IC50 of 58.7 nM.

In the case of `O=C(Nc1ccc2c(c1)OCc1cnccc1-2)c1nc2ccccc2[nH]1` [Example I-73, N-(5H-chromeno[3,4-c]pyridin-8-yl)-1H-benzo[d]imidazole-2-carboxamide], half-maximal inhibition (IC50) required 619 nM.

The compound `O=C(Nc1ccc2c(c1)OCc1cnccc1-2)N1CCc2ccccc21` [Example II-1, N-(5H-Chromeno[3,4-c]pyridin-8-yl)indoline-1-carboxamide] displayed an IC50 of 387 nM. Against the preceding compound, the IC50 is about 1.6-fold lower.

In turn, `COc1cccc(CCC(=O)Nc2ccc3c(c2)[nH]c2cnccc23)c1` [Example IV-1, 3-(3-Methoxyphenyl)-N-(9H-pyrido[3,4-b]indol-7-yl)propanamide] gave an IC50 of 50.9 nM.

Consider `O=C(Cc1cccc(F)c1)Nc1ccc2c(c1)[nH]c1cnccc12` [Example IV-3, 2-(3-Fluorophenyl)-N-(9H-pyrido[3,4-b]indol-7-yl)acetamide], for which the half-inhibitory concentration (IC50) amounted to 21 nM.

Take `O=C(Cc1ccccc1)Nc1ccc2c(c1)[nH]c1cnccc12` [Example IV-4, 2-Phenyl-N-(9H-pyrido[3,4-b]indol-7-yl)acetamide]: the half-maximal inhibitory concentration (IC50) stood at 9.5 nM. This IC50 is about 2.2-fold lower than that of the compound before.

`N#Cc1cccc(CC(=O)Nc2ccc3c(c2)[nH]c2cnccc23)c1` [Example IV-5, 2-(3-Cyanophenyl)-N-(9H-pyrido[3,4-b]indol-7-yl)acetamide] returned a 50% inhibitory concentration (IC50) of 383 nM. This IC50 lies about 40-fold higher than the previous one.

With `O=C(Nc1ccc2c(c1)OCc1cnccc1-2)Nc1ccccc1Cl` [II-2, 1-(2-chlorophenyl)-3-(5H-chromeno[3,4-c]pyridin-8-yl) urea], the 50% inhibitory concentration (IC50) turned out to be 557 nM.

`O=C(NCCc1ccccc1)Nc1ccc2c(c1)OCc1cnccc1-2` [II-3, 1-(5H-chromeno[3,4-c]pyridin-8-yl)-3-phenethylurea]: the IC50 worked out at 189 nM.

The compound `O=C(Nc1cccc(Cl)c1)Nc1ccc2c(c1)OCc1cnccc1-2` [II-4, 1-(3-chlorophenyl)-3-(5H-chromeno[3,4-c]pyridin-8-yl) urea] registered a concentration for half-maximal inhibition (IC50) of 2370 nM.

In turn, `O=C(Nc1cccnc1)Nc1ccc2c(c1)OCc1cnccc1-2` [II-5, 1-(5H-chromeno[3,4-c]pyridin-8-yl)-3-(pyridin-3-yl)urea] registered an IC50 of 1420 nM.

`COc1ccc(CCNC(=O)Nc2ccc3c(c2)OCc2cnccc2-3)cc1` [II-6, 1-(5H-chromeno[3,4-c]pyridin-8-yl)-3-(4-methoxyphenethyl) urea] showed an IC50 of 1610 nM. The IC50 values of the last two compounds are within 1.5-fold of each other.

As for `O=C(NCCc1ccccc1F)Nc1ccc2c(c1)OCc1cnccc1-2` [II-7, 1-(5H-chromeno[3,4-c]pyridin-8-yl)-3-(2-fluorophenethyl)urea], the IC50 came to 233 nM. This IC50 lies about 6.9-fold lower than the previous one.

`O=C(NCC(c1ccccc1)c1ccccc1)Nc1ccc2c(c1)OCc1cnccc1-2` [II-8, 1-(5H-chromeno[3,4-c]pyridin-8-yl)-3-(2,2-diphenylethyl)urea]: the IC50 was found to be 910 nM.

Compound `O=C(NCCc1ccc(Cl)cc1)Nc1ccc2c(c1)OCc1cnccc1-2` [II-9, 1-(4-chlorophenethyl)-3-(5H-chromeno[3,4-c]pyridin-8-yl) urea] returned an IC50 of 971 nM. This IC50 and that of the compound before are within 1.5-fold of each other.
